Results on 24 compounds are retold here after patent publication US20240124454A1, “TRICYCLIC COMPOUND AND USE THEREOF” (NANJING ZAIMING PHARMACEUTICAL CO., LTD., priority 2020, published 2024).

Read-outs that look alike come from different tables or passages of the source.

This assay addresses MAT2A (Homo sapiens (Human), UniProt P31153). The assay is described as follows: MAT2A biochemical test (inorganic phosphate colorimetric, PiColorLock). The settings on record: read-out: MAT2A inhibitory Activity IC50. An excerpt: Test Example 1. Biochemical Test
The brief introduction of the test principle: L-methionine and ATP can be converted into SAM, inorganic phosphate, and inorganic diphosphate under the catalysis of MAT2A enzymes. The content of inorganic phosphate in the sample can be quantitatively determined by adding a developer such as ammonium molybdate or the like to the enzymatic reaction mixture, thereby reflecting the enzymatic activity of MAT2A.
Reference: The experiment referred to the method disclosed in patent WO2018045071.
Material: MAT2A screening kits were purchased from BPS bioscience (U.S.); 384-well plates were purchased from Corning Company (U.S.). • 1. MAT2A protein (Pharmaron Beijing Co., Ltd.); • 2. L-methionine (Sigma #M9625-5G) • 3. ATP (Sigma #A7699-1G) • 4. KCl (Sigma #60142-500ML-F) • 5. Tris (Sigma #T2663-1L) • 6. MgCl2 (Sigma #M1028) • 7. EDTA (Invitrogen #AM9260G) • 8. BSA (Sangon Biotech #A500023-0100) • 9. PiColorLock (abcam #ab270004)
Detection method: In the experimental group, the test compound was dissolved in DMSO, diluted to a final concentration of 10 μM using Echo, and diluted 3-fold. 80 nL of the dilution was transferred to a 384-well plate.
The experimental buffer (50 mM Tris, 50 mM KCl, 15 mM MgCl2, 100 μM EDTA, 0.005% BSA) was prepared. The MAT2A protein was diluted with the experimental buffer (at final concentration of […]). 40 μL of 2×MAT2A solution was added to the 384-well plate. The plate was centrifuged at 1000 rpm for 1 min and incubated at room temperature for 120 min.
L-methionine and ATP (the final concentration of L-methionine was […] and the final concentration of ATP was 400 μM) were diluted with the experimental buffer. 40 μL of 2×L-methionine and ATP solution was added to initiate the reaction. The plate was centrifuged at 1000 rpm for 1 min and incubated at room temperature for 90 min.
The PiColorLock™ reaction catalyst was mixed with the PiColorLock™ buffer at a ratio of 1:100 according to the instructions. 20 μL was added to each well, and the plate was shaken for 30 s. 8 μL stabilizing reagent was added, and the plate was shaken for 30 s. The signal values were measured after 30 min of incubation at room temperature.
A negative control group and a positive control group were respectively used as Bottom and Top. The negative control group was not added with MAT2A protein, and other operations were consistent with those of the experimental group. The positive control group was not added with the test compound, only added with DMSO in the same volume, and other operations were consistent with those of the experimental group.
The % Compound inhibition was calculated and fitted to give the IC50 of the compound.
% Compound inhibition=1-100%×(Signal−Bottom)/(Top−Bottom).
Signal referred to the signal value of the experimental group, Bottom referred to the average signal value of the negative control group, and Top referred to the average signal value of the positive control group.
Under the condition of this experiment, the inhibitory effect of the test compound on MAT2A can be expressed as the IC50 of the inhibition on the phosphate production level during the enzymatic reaction.

Chain of MAT2A (P31153 whole entry): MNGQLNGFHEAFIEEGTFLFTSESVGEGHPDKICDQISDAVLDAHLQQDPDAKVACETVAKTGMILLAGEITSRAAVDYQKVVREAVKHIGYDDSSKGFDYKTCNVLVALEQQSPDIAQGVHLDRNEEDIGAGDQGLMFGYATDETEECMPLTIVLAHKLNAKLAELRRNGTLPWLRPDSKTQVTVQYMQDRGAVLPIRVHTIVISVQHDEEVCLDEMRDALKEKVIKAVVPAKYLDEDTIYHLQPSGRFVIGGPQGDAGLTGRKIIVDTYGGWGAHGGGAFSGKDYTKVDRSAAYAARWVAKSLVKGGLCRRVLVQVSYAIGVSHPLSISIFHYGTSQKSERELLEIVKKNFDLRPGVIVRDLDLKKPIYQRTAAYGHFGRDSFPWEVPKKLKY

Turning to `Cn1cnc2c(=O)n(-c3cccnc3C3CC3)c3cc(C(F)(F)F)ccc3c21` (atropisomer, axis not shown) [Compound 48, 5-(2-cyclopropylpyridin-3-yl)-1-methyl-7-(trifluoromethyl)-1,5-dihydro-4H-imidazo[4,5-c]quinolin-4-one], the IC50 runs as follows: (class symbols) less than 100 nM; (numeric values) 36 nM.

Consider `Cn1cnc2c(=O)n(-c3ccccc3C(F)(F)F)c3nc(C(F)(F)F)ccc3c21` (single isomer, unassigned) [Compound 57-P2, 1-methyl-7-(trifluoromethyl)-5-(2-(trifluoromethyl)phenyl)-1,5-dihydro-4H-imidazo[4,5-c][1,8]naphthyridin-4-one], for which the IC50 was less than 100 nM (class symbols) and 42 nM (numeric values).

On to `Cn1cnc2c(=O)n(-c3ccc(OC(F)F)cc3Cl)c3nc(C(F)(F)F)ccc3c21` (single isomer, unassigned) [Compound 58-P2, 5-(2-chloro-4-(difluoromethoxy)phenyl)-1-methyl-7-(trifluoromethyl)-1,5-dihydro-4H-imidazo[4,5-c][1,8]naphthyridin-4-one], for which the IC50 is less than 100 nM (class symbols) and 90.8 nM (numeric values).

`CCc1ncccc1-n1c(=O)c2ncn(C)c2c2ccc(C(F)(F)F)nc21` (single isomer, unassigned) [Compound 67-P2, 5-(2-ethylpyridin-3-yl)-1-methyl-7-(trifluoromethyl)-1,5-dihydro-4H-imidazo[4,5-c][1,8]naphthyridin-4-one]: the IC50 reads like this: (class symbols) less than 100 nM; (numeric values) 41.4 nM.

In the case of `C#Cc1cccc(-n2c(=O)c3ncn(C)c3c3ccc(C(F)(F)F)nc32)c1Cl` (single isomer, unassigned) [Compound 80-P2, 5-(2-chloro-3-ethynylphenyl)-1-methyl-7-(trifluoromethyl)-1,5-dihydro-4H-imidazo[4,5-c][1,8]naphthyridin-4-one], the IC50 is less than 100 nM (class symbols) and 32.5 nM (numeric values).

Turning to `O=c1c2ncoc2c2ccc(C(F)(F)F)cc2n1-c1cccnc1C1CC1` (single isomer, unassigned) [Compound 85-P2, 5-(2-cyclopropylpyridin-3-yl)-7-(trifluoromethyl)oxazolo[4,5-c]quinolin-4(5H)-one], the IC50 was less than 100 nM (class symbols) and 33.6 nM (numeric values).

As to `O=c1c2ncoc2c2ccc(C(F)(F)F)nc2n1-c1cccnc1C(F)(F)F` (single isomer, unassigned) [Compound 86-P2, 7-trifluoromethyl-5-(2-trifluoromethylpyridin-3-yl)oxazolo[4,5-c][1,8]naphthyridin-4(5H)-one], the IC50 runs as follows: (class symbols) less than 100 nM; (numeric values) 25 nM.

On to `O=c1c2ncn(C(F)F)c2c2ccc(Cl)cc2n1-c1cccnc1C1CC1` (single isomer, unassigned) [Compound 87-P2, 7-chloro-5-(2-cyclopropylpyridin-3-yl)-1-difluoromethyl-1,5-dihydro-4H-imidazo[4,5-c]quinolin-4-one], for which the IC50 is less than 100 nM (class symbols) and 38.7 nM (numeric values).

For the compound `O=c1[nH]c2c(=O)n(-c3ccccc3Cl)c3nc(C(F)(F)F)ccc3c2[nH]1` [Compound 4, 5-(2-chlorophenyl)-7-(trifluoromethyl)-3,5-dihydro-1H-imidazo[4,5-c][1,8]naphthyridine-2,4-dione], the IC50 reads like this: (class symbols) less than 100 nM; (numeric values) 69.6 nM.

Turning to `O=c1c2cn[nH]c2c2ccc(C(F)(F)F)nc2n1-c1ccccc1Cl` [Compound 7, 5-(2-chlorophenyl)-7-(trifluoromethyl)-1,5-dihydro-4H-pyrazolo[4,3-c][1,8]naphthyridin-4-one], the IC50 runs as follows: (class symbols) 100 to 500 nM; (numeric values) 128 nM.

As to `O=c1c2ncoc2c2ccc(C(F)(F)F)nc2n1-c1ccccc1Cl` [Compound 8, 5-(2-chlorophenyl)-7-(trifluoromethyl)oxazolo[4,5-c][1,8]naphthyridin-4(5H)-one], the IC50 (class symbols) is less than 100 nM and the half-maximal inhibitory concentration (IC50) (numeric values) was determined as 64.4 nM.

Consider `CCOc1ccc2c3[nH]c(=O)[nH]c3c(=O)n(-c3ccc(OC(F)F)cc3)c2n1` [Compound 10, 5-(4-(difluoromethoxy)phenyl)-7-ethoxy-3,5-dihydro-1H-imidazo[4,5-c][1,8]naphthyridine-2,4-dione], for which the IC50 is less than 100 nM (class symbols) and 33 nM (numeric values).

In the case of `CCOc1ccc2c3[nH]c(OC)nc3c(=O)n(-c3ccc(OC(F)F)cc3)c2n1` [Compound 11, 5-(4-(difluoromethoxy)phenyl)-7-ethoxy-2-methoxy-1,5-dihydro-4H-imidazo[4,5-c][1,8]naphthyridin-4-one], the IC50 is, setting by setting: (class symbols) less than 100 nM; (numeric values) 56.6 nM.

As to `Cn1cc2c(n1)c(=O)n(-c1ccc(OC(F)F)cc1)c1nc(C(F)(F)F)ccc21` [Compound 12, 5-(4-(difluoromethoxy)phenyl)-2-methyl-7-(trifluoromethyl)-2,5-dihydro-4H-pyrazolo[3,4-c][1,8]naphthyridin-4-one], the IC50 is 100 to 500 nM (class symbols) and 102 nM (numeric values).

`CCOc1ccc2c3cn(C)nc3c(=O)n(-c3ccc(OC(F)F)cc3)c2n1` [Compound 13, 5-(4-(difluoromethoxy)phenyl)-7-ethoxy-2-methyl-2,5-dihydro-4H-pyrazolo[3,4-c][1,8]naphthyridin-4-one]: the IC50 is, setting by setting: (class symbols) 100 to 500 nM; (numeric values) 122 nM.

As for `CCOc1ccc2c3c(ncn3C)c(=O)n(-c3ccc(OC(F)F)cc3)c2n1` [Compound 14, 5-(4-(difluoromethoxy)phenyl)-7-ethoxy-1-methyl-1,5-dihydro-4H-imidazo[4,5-c][1,8]naphthyridin-4-one], the IC50 is less than 100 nM (class symbols) and 46.4 nM (numeric values).

Take `Cn1cnc2c(=O)n(-c3ccc(OC(F)F)cc3)c3nc(C(F)(F)F)ccc3c21` [Compound 15, 5-(4-(difluoromethoxy)phenyl)-1-methyl-7-(trifluoromethyl)-1H-imidazo[4,5-c][1,8]naphthyridin-4(5H)-one]: the IC50 (class symbols) was less than 100 nM and the IC50 (numeric values) worked out at 38.5 nM.

For `O=c1c2ncoc2c2ccc(C(F)(F)F)nc2n1-c1ccc(OC(F)F)cc1` [Compound 16, 5-(4-(difluoromethoxy)phenyl)-7-(trifluoromethyl)oxazolo[4,5-c][1,8]naphthyridin-4(5H)-one], the 50% inhibitory concentration (IC50) runs as follows: (class symbols) 100 to 500 nM; (numeric values) 122 nM.

In the case of `O=c1c2ocnc2c2ccc(C(F)(F)F)nc2n1-c1ccc(OC(F)F)cc1` [Compound 18, 5-(4-(difluoromethoxy)phenyl)-7-(trifluoromethyl)oxazolo[5,4-c][1,8]naphthyridin-4(5H)-one], the IC50 reads like this: (class symbols) 100 to 500 nM; (numeric values) 442 nM.

In the case of `Cn1cnc2c(=O)n(-c3ccc(Cl)cc3)c3nc(C(F)(F)F)ccc3c21` [Compound 19, 5-(4-chlorophenyl)-1-methyl-7-(trifluoromethyl)-1,5-dihydro-4H-imidazo[4,5-c][1,8]naphthyridin-4-one], the IC50 reads like this: (class symbols) less than 100 nM; (numeric values) 51.4 nM.

In the case of `Cn1cnc2c(=O)n(-c3ccccc3)c3nc(C(F)(F)F)ccc3c21` [Compound 21, 1-methyl-5-phenyl-7-(trifluoromethyl)-1,5-dihydro-4H-imidazo[4,5-c][1,8]naphthyridin-4-one], the IC50 (class symbols) is less than 100 nM and the IC50 (numeric values) came out at 64.9 nM.

In the case of `Cn1cnc2c(=O)n(-c3cccc(Cl)c3)c3nc(C(F)(F)F)ccc3c21` [Compound 22, 5-(3-chlorophenyl)-1-methyl-7-(trifluoromethyl)-1,5-dihydro-1H-imidazo[4,5-c][1,8]naphthyridin-4-one], the IC50 (class symbols) lay in the range of 100 to 500 nM.

In the case of `Cn1cnc2c(=O)n(-c3ccccc3F)c3nc(C(F)(F)F)ccc3c21` [Compound 23, 5-(2-fluorophenyl)-1-methyl-7-(trifluoromethyl)-1,5-dihydro-4H-imidazo[4,5-c][1,8]naphthyridin-4-one], the IC50 was less than 100 nM (class symbols) and 78.8 nM (numeric values).

For the compound `Cn1cnc2c(=O)n(-c3c(F)cccc3Cl)c3nc(C(F)(F)F)ccc3c21` [Compound 26, 5-(2-chloro-6-fluorophenyl)-1-methyl-7-(trifluoromethyl)-1,5-dihydro-4H-imidazo[4,5-c][1,8]naphthyridin-4-one], the IC50 runs as follows: (class symbols) 100 to 500 nM; (numeric values) 135 nM.

The term IC50 denotes the midpoint of a concentration-inhibition curve.
